Here are results for one substance from article PMC10492782, “Exploiting the aggregation propensity of beta-lactamases to design inhibitors that induce enzyme misfolding” (Nature Communications, 2023).

Data set [1] deals with T1, recombinantly purified TEM-1 (Escherichia coli, UniProt P62593).
T1 construct: His-tag (N); TEV cleavage site (N); made in house; host or cells: E. coli BL21 (DE3)
The data set is classed as biochemical, E. coli. As to conditions: pFTAA fluorescence kinetics. The method, then: Fig. 4 Aggregation kinetics of TEM and SHV proteins and peptides. A Measurements of the hydrodynamic radius by Dynamic Light Scattering of 50 μM TEM3.2 in buffer alone, or in the presence of LPS or polyphosphate (PolyP). […] C Transmission Electron Micrograph of 50 μM TEM 3.2 incubated for 24 h in the same buffer as A with polyP, negatively stained with 2% (w/v) uranyl acetate. A single representative image is shown. […] Three replicates are shown for each condition. E Aggregation kinetics using pFTAA fluorescence emission of recombinantly purified TEM-1, in the presence of vehicle, or TEM 3.2 peptin, as well as peptin-only control. F Similar as in E, but using an off-target Pept-In, based on an APR sequence of beta-galactosidase. G Similar to E, but now using a previously published off-target Pept-In, based on an APR of HcaB. The plots are the results of a single experiment, all replicates are shown. Source data are provided as a Source Data file.

Data set [2] addresses T2, TEM beta-lactamase (Escherichia coli, UniProt P62593).
T2 construct: His-tag (N); TEV cleavage site (N); made in house; host or cells: E. coli BL21 (DE3)
Briefly: β-lactamase activity assay (nitrocefin). The data set is classed as biochemical. To be noted: chromogenic substrate nitrocefin, Suppl Fig. 8. The method, then: The beta-lactamase assay procedure is based on the hydrolysis of the substrate Nitrocefin, a chromogenic cephalosporin, which produces a colored product (detectable at OD = 490 nm) that is directly proportional to the quantity of beta-lactamase activity. This experiment was carried out in 96-well black polystyrene flat-bottom microtiter plates (BD Biosciences). In brief, 50 μl of different concentrations of peptides or tazobactam in PBS were added to each well, followed by 50 μl of beta-lactamase protein at a final concentration of 12 ng. The plate was incubated at 37 °C for 1 h. The control heat was heated for 1 h at 95 degrees Celsius. Each well received 5 μl of Nitrocefin at a stock concentration of 0.5 mg/mL Nitrocefin. The hydrolyzed Nitrocefin was identified by absorption at 490 nm, which is proportional to the amount of beta-lactamase activity.

Data set [3] relates to E. coli K12 MG1655 overexpressing GFP. Nature of the data set: Structured illumination microscopy of strains expressing GFP or FP fusions. The data set is classed as cell-based, Escherichia coli. To be noted: strains stably expressing GFP or proteins fused to FPs treated with TEM3.2. The text has this: (§1) Fig. 5 Induction of aggregation in cells. […] A single representative image is shown. […] A single representative image is shown. C SIM and brightfield images as in A, but for E. coli ATCC strain. […] A single representative image is shown. […] A single representative blot is shown. […] The corrected P-values were 0.6091, 0.0029, 0.0027, <0.0001, and 0.9992, from left to right. […] Statistics exactly as in E, but from 3 independent experiments. The corrected P-values were 0.8753, 0.9796, 0.0001, 0.0003, and 0.0003, from left to right. Source data are provided as a Source Data file.
Bacteria were fixed by adding 2.5% paraformaldehyde and 0.04 % glutaraldehyde (final concentrations) to the culture media, followed by incubation at room temperature for 15 min and 30 min on ice. Bacteria were then washed in PBS and resuspended in GTE buffer (50 mM glucose, 25 mM Tris, and 10 mM EDTA, pH 8.0). Directly preceding microscopic analysis, cells were transferred to a glass slide and covered with a coverslip. Imaging was performed using a Zeiss Elyra S.1 system in the VIB BioImaging Core at KU Leuven.

The target in data set [4] is T3, TEM beta-lactamase in E. coli strain UZ_TEM104 (Escherichia coli, UniProt P62593).
T3 construct: endogenous in cells
Briefly: Western blot of inclusion body fraction. The data set is classed as cell-based. As to conditions: 12 μM peptide in PBS, 120 min.
Text: as §1
Overnight cultures of bacteria were centrifuged for 30 min at 4000 × g and cells were washed with physiological water (NaCl 0.9%). Bacterial cells were treated by peptide at the appropriate concentration for at least 2 h at 37 C. The bacterial pellets were washed with 10 mL buffer A (50 mM HEPES, pH 7.5, 300 mM NaCl, 5 mM β-mercaptoethanol, 1.0 mM EDTA) and centrifuged at 4 °C for 30 min at 4000 × g. […]

The test system of data set [5] is human erythrocytes. Nature of the data set: Hemolysis. As to conditions: 2 h at 37 °C, normalized to 1% triton. The method, then:
Fig. 7 Evaluation of in vivo use of peptides that induce the aggregation of TEM beta-lactamase. A Lysis of human erythrocytes (hemolysis) was assessed in the presence of the indicated concentrations of TEM3.2 for 2 h at 37 °C, and normalized to the value obtained with 1% of the detergent triton. […] B Cell viability using the CellTiter Blue assay of HeLa cells treated for 24 h with the indicated concentrations TEM 3.2 at 37 °C. […] DAPI (4’,6-diamidino-2-phenylindole) is blue, while CellMask is red. D Experimental workflow of the in vivo model used in this study. E–G Bacterial load of indicated organs of female C57BL/6JAX mice with a urinary tract infection with E. coli strain UZ_TEM104, treated with 30 mg/kg penicillin (oral) as well 10 mg/kg tazobactam (oral) or 10 mg/kg TEM3.2 via the indicated treatment route. IV intravenous, IP intraperitoneal, SC subcutaneously. The data shown is from a single experiment with 12 animals for each group. The result for each animal is shown as a dot. […] The statistically significant differences were determined using ANOVA, followed by Dunnett’s multiple comparison test. […] Source data are provided as a Source Data file.

T1 sequence (P62593 24-286 limits assumed): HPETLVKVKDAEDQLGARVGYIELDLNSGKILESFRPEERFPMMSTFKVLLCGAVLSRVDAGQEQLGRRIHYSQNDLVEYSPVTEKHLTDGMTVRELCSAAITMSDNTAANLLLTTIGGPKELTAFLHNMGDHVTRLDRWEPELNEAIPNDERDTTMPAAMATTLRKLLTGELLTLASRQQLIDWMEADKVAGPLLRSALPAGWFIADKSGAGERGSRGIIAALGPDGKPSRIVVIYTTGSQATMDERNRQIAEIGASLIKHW
T2 sequence (P62593 24-286 limits assumed): as above
T3 sequence (P62593 24-286 limits assumed): as above

For Ac-RLTAFLHNRRPRLTAFLRQRR-NH2 [TEM3.2], in data set [1], the “induction of aggregation of recombinantly purified TEM beta-lactamase (in words)” value is reported as “potent inducer of the aggregation of the TEM beta-lactamase”. For the same substance, the “effect on beta-lactamase enzymatic function (in words)” value in data set [2] is given as “loss of function of the enzymatic function of the beta-lactamase”. In addition, the “induced aggregation of unrelated fluorescent proteins (in words)” value in data set [3] is on record as “did not observe a similar induced aggregation of the fluorescent proteins”. Moreover, the “TEM protein in inclusion body fraction, western blot (in words)” value in data set [4] is “clear enrichment of the TEM protein in IBs”. For the same substance, the “hemolysis (in words)” value in data set [5] is reported as “not hemolytic to human erythrocytes”.
